Converted amounts (≈) assume the structure as drawn.
Experiment: Solubility in silicone oil at 25° C.
Details: oil or lipid

Row | SMILES | solubility [µg/mL]
1 | C[C@]12CC[C@H]3[C@@H](CCC4=CC(=O)CC[C@@]43C)[C@@H]1CC[C@@H]2O [testosterone] | 140 (≈ 485 µM)
2 | CC(C)N1CCN(c2ccc(OCC3COC(Cn4cncn4)(c4ccc(Cl)cc4Cl)O3)cc2)CC1 (stereo not shown) [terconazole] | 200 (≈ 376 µM)
3 | Nc1nc2c(ncn2COCCO)c(=O)[nH]1 [acyclovir] | < 80
4 | Cc1ncc([N+](=O)[O-])n1CCO [metronidazole] | 6 (≈ 35.1 µM)

From US9993424B2, “Intravaginal matrix drug delivery devices” (Allergan Pharmaceuticals International Limited, priority 2002, dated 2018)
